Test results: ChEMBL document CHEMBL4339231, “α,γ-Diketocarboxylic Acids and Their Esters Act as Carbonic Anhydrase IX and XII Selective Inhibitors” (ACS Med Chem Lett, 2019)
Calls of active or inactive are those of the source. The calls are words filed in the database; no cut-off is given here.

Legend:
[1] = tested on: HOS; assay: Induction of apoptosis in human HOS cells assessed as increase in caspase-3 activation at 25 uM incubated for 72 hrs by Caspase-GloR 3/7 assay; format: functional, cell-based
[2] = tested on: MG-63; assay: Cytotoxicity in human MG63 cells assessed as reduction in cell viability at 25 uM incubated for 72 hrs by acid phosphatase assay; format: functional
[3] = tested on: HOS; assay: Antiproliferative activity against human HOS cells assessed as reduction in cell viability incubated for 72 hrs by erythrosine B dye vital staining assay; format: functional, cell-based
[4] = tested on: MG-63; assay: Induction of apoptosis in human MG63 cells assessed as increase in caspase-7 activation at 25 uM incubated for 72 hrs by Caspase-GloR 3/7 assay; format: functional, cell-based
[5] = target: Carbonic anhydrase 2 (Homo sapiens, UniProt P00918); assay: Inhibition of human carbonic anhydrase 2 incubated for 15 mins by stopped flow CO2 hydrase assay
[6] = tested on: MG-63; assay: Induction of apoptosis in human MG63 cells assessed as increase in caspase-3 activation at 25 uM incubated for 72 hrs by Caspase-GloR 3/7 assay; format: functional, cell-based
[7] = tested on: MG-63; assay: Cytotoxicity in human MG63 cells assessed as reduction in cell viability at 12.5 to 100 uM incubated for 72 hrs by acid phosphatase assay; format: functional, cell-based
[8] = tested on: MG-63; assay: Antiproliferative activity against human MG63 cells assessed as reduction in cell viability incubated for 72 hrs by erythrosine B dye vital staining assay; format: functional, cell-based; conditions: MG-63, 72 h
[9] = target: Carbonic anhydrase 1 (Homo sapiens, UniProt P00915); assay: Inhibition of human carbonic anhydrase 1 incubated for 15 mins by stopped flow CO2 hydrase assay
[10] = tested on: HOS; assay: Induction of apoptosis in human HOS cells assessed as increase in caspase-7 activation at 25 uM incubated for 72 hrs by Caspase-GloR 3/7 assay; format: functional, cell-based
[11] = tested on: HOS; assay: Cytotoxicity in human HOS cells assessed as reduction in cell viability at 25 uM incubated for 72 hrs by acid phosphatase assay; format: functional
[12] = tested on: HOS; assay: Cytotoxicity in human HOS cells assessed as reduction in cell viability at 12.5 to 100 uM incubated for 72 hrs by acid phosphatase assay; format: functional, cell-based
[13] = target: Carbonic anhydrase 9 (Homo sapiens, UniProt Q16790); assay: Inhibition of human carbonic anhydrase 9 incubated for 15 mins by stopped flow CO2 hydrase assay
[14] = tested on: MG-63; assay: Induction of apoptosis in human MG63 cells assessed as increase in caspase-3 activation at 50 uM incubated for 72 hrs by Caspase-GloR 3/7 assay; format: functional, cell-based
[15] = tested on: MG-63; assay: Induction of apoptosis in human MG63 cells assessed as increase in caspase-7 activation at 50 uM incubated for 72 hrs by Caspase-GloR 3/7 assay; format: functional, cell-based
[16] = tested on: HOS; assay: Induction of apoptosis in human HOS cells assessed as increase in caspase-3 activation at 50 uM incubated for 72 hrs by Caspase-GloR 3/7 assay; format: functional, cell-based
[17] = tested on: HOS; assay: Induction of apoptosis in human HOS cells assessed as increase in caspase-7 activation at 50 uM incubated for 72 hrs by Caspase-GloR 3/7 assay; format: functional, cell-based
[18] = tested on: HOS; assay: Cytotoxicity in human HOS cells assessed as reduction in cell viability at 50 uM incubated for 72 hrs by acid phosphatase assay; format: functional
[19] = tested on: MG-63; assay: Cytotoxicity in human MG63 cells assessed as reduction in cell viability at 50 uM incubated for 72 hrs by acid phosphatase assay; format: functional

Chain of Carbonic anhydrase 1 (P00915 whole entry): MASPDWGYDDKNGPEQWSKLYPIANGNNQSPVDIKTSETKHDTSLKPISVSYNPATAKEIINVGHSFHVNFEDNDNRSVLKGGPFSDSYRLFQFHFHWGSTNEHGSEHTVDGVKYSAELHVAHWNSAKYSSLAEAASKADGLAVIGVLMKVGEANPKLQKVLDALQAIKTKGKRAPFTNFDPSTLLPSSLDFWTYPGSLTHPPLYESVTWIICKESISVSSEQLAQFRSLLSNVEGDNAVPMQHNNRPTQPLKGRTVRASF

SMILES | Activity [1] | Activity [2] [%] | IC50 [3] [µM] | Activity [4] | Ki [5] [µM] | Activity [6] | Activity [7] | IC50 [8] [µM] | Ki [9] [µM] | Activity [10] | Activity [11] [%] | Activity [12] | Ki [13] [nM] | Activity [14] | Activity [15] | Activity [16] | Activity [17] | Activity [18] [%] | Activity [19] [%]
CCOC(=O)/C(O)=C/C(=O)/C=C/c1ccc(NC(=O)c2cccc3ccccc23)cc1 | inactive | 16.4 | 15.6 | inactive | 8.65 | inactive | Dose-dependent effect | 14.7 | > 10 | inactive | 19.7 | Dose-dependent effect | 37.9 |  |  |  |  |  | 
CCOC(=O)/C(O)=C/C(=O)/C=C/c1ccc(NC(=O)c2ccccc2)cc1 |  |  |  |  | > 10 |  |  |  | 7.33 |  |  |  | 90.2 |  |  |  |  |  | 
CCOC(=O)/C(O)=C/C(=O)/C=C/c1ccc(NC(=O)c2ccc3ccccc3c2)cc1 |  |  | 19.2 |  | 9.44 |  | Dose-dependent effect | 45.8 | 6.18 |  |  | Dose-dependent effect | 12.6 | inactive | inactive | inactive | inactive | 50 | 50
O=C(/C=C(\O)C(=O)O)/C=C/c1ccc(NC(=O)c2ccc3ccccc3c2)cc1 |  |  |  |  | 2.08 |  | inactive |  | 8.98 |  |  | inactive | 11.3 |  |  |  |  |  | 
O=C(/C=C(\O)C(=O)O)/C=C/c1ccc(NC(=O)c2ccccc2)cc1 |  |  |  |  | 5.03 |  |  |  | > 10 |  |  |  | 12.5 |  |  |  |  |  | 
O=C(/C=C(\O)C(=O)O)/C=C/c1ccc(NC(=O)c2cccc3ccccc23)cc1 |  |  |  |  | 2.58 |  |  |  | > 10 |  |  |  | 12.8 |  |  |  |  |  | 
